Experimental data from US20220362365A1, “IMPROVED COMPOSITIONS AND METHODS FOR SHARED NEO-EPITOPE VACCINES” (Epivax Therapeutics Inc., priority 2019, published 2022).

Assays:
[1] = test system: CT26 tumor cells; assay: CT26 tumor growth / survival after vaccination (Example 1); assay type: in vivo; conditions: CT26 tumor-bearing Balb/c mice
[2] = test system: CT26 murine colon tumor cells; assay: Anti-tumor activity with or without poly-ICLC, CT26 murine tumor model (Example 13); assay type: in vivo; conditions: CT26 tumor-bearing BALB/c mice, n=10, day 25 post-tumor implantation, relative to PBS or poly-ICLC alone
Description: The goal of this experiment was to determine the requirement for the inclusion of the adjuvant poly-ICLC in a peptide vaccine containing ANCER™ selected neoantigens. For this experiment, female BALB/c mice were implanted subcutaneously with 3×10^5 CT26 murine colon tumor cells. Tumor growth was monitored by caliper measurement and mice were sacrificed 45 days after tumor implantation or when tumor volumes reached 2000 mm^3, whichever came first.
Four vaccine groups were tested (n=10 mice/group): • Group 1=PBS only • Group 2=PBS with 50 μg poly-ICLC • Group 3=20 ANCER™ selected (uncapped) peptides with 50 μg poly-ICLC • Group 4=20 ANCER™ selected (uncapped) peptides only
Peptide vaccines were comprised of 20 different ANCER™ selected peptides at a concentration of 5 μg/peptide for a total dose of 100 μg peptide per immunization. Mice were immunized subcutaneously in the opposite flank from tumor implantation twice per week for three weeks, starting at day 4 post-tumor implantation.

poly-ICLC was tested. Which “tumor burden compared to Group 1 (mice immunized with PBS)” value ([1]; 50 μg sc days 5, 8, 12, 15, 19, 22, 26) did it give?
The value was “no reduction in tumor burden”.

What about the “mice surviving past day 28” value ([1]; N=10) of the same substance?
Its value is “Less than 50%”.

And the “mice surviving the 45 days of the experiment (in words)” value ([1]; N=10)?
The value was “None”.

What about the “mice reaching a tumor volume of at least 2,000 mm^3 (endpoint) by day 28” value ([1]; N=10, day 28, PBS group 70%) of the same substance?
Its value is 60%.

What about the “control of tumor growth” value [2] of the same substance?
Its value is “no difference in tumor growth kinetics”.
